Experimental data as given in patent publication US4659696A, “Pharmaceutical composition and its nasal or vaginal use” (Takeda Chemical Industries, Ltd., priority 1982, dated 1987).
Like-named read-outs stand apart in the source and are kept apart here.

Legend:
[1] = Saturation solubility of cyclodextrin; assay type: physicochemical; settings: isotonic buffer solution (pH 7.4)
[2] = rats, rectal suspension, 5-FU 50 mg/kg
Method: An amount (corresponding to 50 mg/kg) of 5-FU and 5 mg of α-cyclodextrin are finely milled in a mortar and added to 0.1 ml of physiological saline. The mixture is subjected to ultrasonic treatment (27 KHz, 5 minutes). The thus-obtained suspension is rectally administered to rats in the manner in Experimental Example 7. Blood samples are taken from the tail vein at timed intervals and 5-FU plasma levels are determined by bioassay using Micrococcus luteus ATCC-10240 as the test organism. In the control group, the procedure is followed with α-cyclodextrin-free 5-FU.

[3] = rats, rectal Witepsol W-35 suppository, sodium cefazolin 50 mg/kg
Method: Thereafter, blood sampling from the tail vein is performed at timed intervals and the plasma cefazolin level is determined by bioassay using Bacillus subtilis PCI-219 as the test organism.

[4] = rat, in vivo
Method: Male SD strain rats (body weights 250 g, approx.) fasted for 16 hours are used in groups of at least 3 animals. Each animal is anesthetized with pentobarbital and administered nasal medication in accordance with the method described in International Journal of Pharmaceutics 7, 317 (1981). Then, 0.1 ml/kg of insulin solution is directly administered into the nasal cavity with a micropipette via the nostril.
In 0.1 ml of physiological saline are dissolved 100 μg of TAP-144 and 5 mg of α-cyclodextrin, and in the manner of Experimental Example 1, the 0.1 ml/kg equivalent of the solution is administered into the nasal cavity (the dose of TAP-144: […]).

[5] = rat, in vivo; remark: listed apart in the source
Method: (§1) SD-strain mature female rats (weighing about 270 g, 14 to 18 weeks old, in groups of 4 to 5 individuals) at diestrus as selected by the vaginal smear test covering a period of at least one week are anesthetized with pentobarbital and phenobarbital at 8-11 a.m., and a solution prepared by dissolving 500 μg of TAP-144 and 20 mg (2%), 50 mg (5%) or 100 mg (10%) of α-cyclodextrin in physiological saline in an amount to make 1 ml is administered into the vagina with about 12 mg of cotton soaked therewith at the dose level of 0.2 ml/kg (corresponding 100 μg/kg of TAP-144). Blood samples are taken from the tail vein at timed intervals and assayed for the serum TAP-144 level by radioimmunoassay [refer to Endocrinologia Japonica, vol.

in vivo = settings: female, SD, rat, 100 ug/kg, Concentration of TAP-144 in serum
Method: as §1

[6] = system: prothrombin time (blood coagulation time); assay: Prothrombin time (blood coagulation time) after rectal heparin sodium in rats; assay type: in vivo, rat; settings: heparin sodium 600 U
Method: A 0.27 ml portion of each blood sample is placed in a polyethylene microtube containing 0.03 ml of 3.8 w/v percent of sodium citrate, the tube contents are stirred well and then centrifuged, and the plasma portion is subjected to prothrombin time (blood coagulation time) determination using a thromboplastin reagent (Simplastin, Ono Pharmaceutical Co., Japan). In the control group, the same procedure is followed with α-cyclodextrin-free heparin sodium. […] An increased absorption of heparin is thus shown.

For OC[C@H]1O[C@@H]2O[C@H]3[C@H](O)[C@@H](O)[C@@H](O[C@H]4[C@H](O)[C@@H](O)[C@@H](O[C@H]5[C@H](O)[C@@H](O)[C@@H](O[C@H]6[C@H](O)[C@@H](O)[C@@H](O[C@H]7[C@H](O)[C@@H](O)[C@@H](O[C@H]8[C@H](O)[C@@H](O)[C@@H](O[C@H]1[C@H](O)[C@H]2O)O[C@@H]8CO)O[C@@H]7CO)O[C@@H]6CO)O[C@@H]5CO)O[C@@H]4CO)O[C@@H]3CO [β-cyclodextrin], the saturation solubility [1] was “about 1.8%”.

For O=c1[nH]cc(F)c(=O)[nH]1 [5-FU, 5-fluorouracil], the “AUC (0-4 hr.)” value ([2]; 5% (w/v) α-cyclodextrin) was 4.0, the Plasma level ([2]; 5% (w/v) α-cyclodextrin, 0.5 hr.) was 1370 ng/mL and the Plasma level ([2]; 5% (w/v) α-cyclodextrin, 1 hr.) was 1720 ng/mL. The Plasma level ([2]; 5% (w/v) α-cyclodextrin, 2 hr.) was 1050 ng/mL, the Plasma level ([2]; 5% (w/v) α-cyclodextrin, 4 hr.) was 490 ng/mL and the “AUC (0-4 hr.)” value ([2]; no cyclodextrin) was 1.1. The Plasma level ([2]; no cyclodextrin, 0.5 hr.) was 970 ng/mL, the Plasma level ([2]; no cyclodextrin, 1 hr.) was 430 ng/mL and the Plasma level ([2]; no cyclodextrin, 2 hr.) was 130 ng/mL. For the same compound, the Plasma level ([2]; no cyclodextrin, 4 hr.) was 60 ng/mL.

Compound Cc1nnc(SCC2=C(C(=O)O)N3C(=O)[C@@H](NC(=O)Cn4cnnn4)[C@H]3SC2)s1 [sodium cefazolin] has a Plasma level ([3]; 10% (w/w) α-cyclodextrin, 0.5 hr.) of 3840 ng/mL, a Plasma level ([3]; 10% (w/w) α-cyclodextrin, 1 hr.) of 5320 ng/mL and a Plasma level ([3]; 10% (w/w) α-cyclodextrin, 2 hr.) of 7370 ng/mL. The Plasma level ([3]; 10% (w/w) α-cyclodextrin, 3 hr.) was 6260 ng/mL, the Plasma level ([3]; 10% (w/w) α-cyclodextrin, 4 hr.) was 5320 ng/mL and the Plasma level ([3]; no cyclodextrin, 0.5 hr.) was 1760 ng/mL. It also gave a Plasma level ([3]; no cyclodextrin, 1 hr.) of 2210 ng/mL, a Plasma level ([3]; no cyclodextrin, 2 hr.) of 3000 ng/mL and a Plasma level ([3]; no cyclodextrin, 3 hr.) of 3490 ng/mL. The Plasma level ([3]; no cyclodextrin, 4 hr.) was 2540 ng/mL.

With CCNC(=O)[C@@H]1CCCN1C(=O)[C@H](CCCNC(=N)N)NC(=O)[C@H](CC(C)C)NC(=O)[C@@H](CC(C)C)NC(=O)[C@H](Cc1ccc(O)cc1)NC(=O)[C@H](CO)NC(=O)[C@H](Cc1c[nH]c2ccccc12)NC(=O)[C@H](Cc1c[nH]cn1)NC(=O)[C@@H]1CCC(=O)N1 [TAP-144] the increase in bioavailability [4] was “about 3.5 times”, the “Concentration of TAP-144 in serum” value ([5]; female, SD, 100 ug/kg, 0.5 h) was 45.3 ng/mL and the “promotion of vaginal absorption” value [5] was “about 6 times”. It also gave a level at 0.5 h (in vivo) of 28.1 ng/mL, a level at 2 h (in vivo) of 39.2 ng/mL and a level at 4 h (in vivo) of 32.1 ng/mL.

Work on heparin sodium yielded a Blood coagulation time ([6]; 5% (w/v) α-cyclodextrin, 0.5 hr., before administration 14.3) of 17.2 s, a Blood coagulation time ([6]; 5% (w/v) α-cyclodextrin, 0.75 hr., before administration 14.3) of 18.4 s and a Blood coagulation time ([6]; 5% (w/v) α-cyclodextrin, 1 hr., before administration 14.3) of 19.7 s. For the same compound, the Blood coagulation time ([6]; 5% (w/v) α-cyclodextrin, 1.5 hr., before administration 14.3) was 18.9 s, the Blood coagulation time ([6]; 5% (w/v) α-cyclodextrin, 2 hr., before administration 14.3) was 19.4 s and the Blood coagulation time ([6]; no cyclodextrin, 0.5 hr., before administration 13.6) was 14.3 s. For the same compound, the Blood coagulation time ([6]; no cyclodextrin, 0.75 hr., before administration 13.6) was 13.7 s, the Blood coagulation time ([6]; no cyclodextrin, 1 hr., before administration 13.6) was 14.7 s and the Blood coagulation time ([6]; no cyclodextrin, 1.5 hr., before administration 13.6) was 15.3 s. For the same compound, the Blood coagulation time ([6]; no cyclodextrin, 2 hr., before administration 13.6) was 14.7 s.
